Consider 5 compounds from patent US10375956B2, “Herbicidally active 2-(substituted-phenyl)-cyclopentane-1,3-dione compounds and derivatives thereof” (Syngenta Limited, priority 2013, dated 2019).

Each structure is given as a SMILES string. Like-named read-outs stand apart in the source and are kept apart here.

What all share (type): in vivo
Experiment [1] relates to Alopecurus myosuroides (ALOMY). Kind of experiment: Test 2 glasshouse assay (IF50 formulation, X-77), post-emergence herbicidal activity. The settings on record: 360 h, 15 DAA, visual score, read-out: Post-emergence herbicidal activity (percentage phytotoxicity) ALOMY; for pest or weed control at 125 g/ha: application rate 125 g/ha; for pest or weed control at 30 g/ha: application rate 30 g/ha. The essentials: (§1)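 Plants in soil pots were sprayed 1 day (pre-emergence) or ~12 days (post-emergence) after sowing with IF50 formulation diluted in 0.2% v/v X-77. Cool species were grown at 20/16 °C day/night, 16 h light, 65% humidity. Visual % phytotoxicity was scored at 20DAA (pre) or 15DAA (post).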

Experiment [2] has as its system Lolium perenne (LOLPE). The experiment is described as above. Conditions: 360 h, 15 DAA, visual score, read-out: Post-emergence herbicidal activity (percentage phytotoxicity) LOLPE; for pest or weed control at 125 g/ha: application rate 125 g/ha; for pest or weed control at 30 g/ha: application rate 30 g/ha. The gist of the method:
as §1

Experiment [3] has as its system Avena fatua (AVEFA). Described as above. Conditions: 360 h, 15 DAA, visual score, read-out: Post-emergence herbicidal activity (percentage phytotoxicity) AVEFA; for pest or weed control at 125 g/ha: application rate 125 g/ha; for pest or weed control at 30 g/ha: application rate 30 g/ha. The gist of the method: as §1
Experiment [4] has as its system Alopecurus myosuroides (ALOMY). Kind of experiment: Test 1 glasshouse assay, post-emergence herbicidal activity. The settings on record: 312 h, after 13 days, read-out: Percentage phytotoxicity ALOMY. The essentials: (§2)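 Plants sprayed 8 days after sowing with active ingredient in acetone/water (50:50) containing 0.5% Tween 20, grown in glasshouse at 24/16°C day/night, 14 h light, 65% humidity. Phytotoxicity scored visually after 13 days as percentage damage (100% = total damage; 0% = none).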

Experiment [5] concerns Echinochloa crus-galli (ECHCG). Described as above. The settings on record: 312 h, after 13 days, read-out: Percentage phytotoxicity ECHCG. The gist of the method:
as §2

The test system of experiment [6] is Sorghum vulgare Pers. (SORVU). Briefly: Test 2 glasshouse assay (IF50 formulation, X-77), pre-emergence herbicidal activity. Conditions: Sorghum bicolor, 480 h, 20DAA, read-out: Percentage phytotoxicity SORVU. The essentials: (§3)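 Test plants were sown in pots of standard soil and cultivated for one day (pre-emergence) or about 12 days (post-emergence) under controlled glasshouse conditions. An aqueous spray with IF50 and 0.2% v/v X-77 was then applied. Damage was rated visually as percentage phytotoxicity 20 days (pre) or 15 days (post) later.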

Experiment [7] deals with Digitaria sanguinalis (DIGSA). Described as above. Conditions: 480 h, 20DAA, read-out: Percentage phytotoxicity DIGSA. The gist of the method: as §3
The subject of experiment [8] is Triticum aestivum (TRZAW, winter wheat). Briefly: Test 2 glasshouse assay (IF50 formulation, X-77), post-emergence herbicidal activity. Conditions: 360 h, 15 DAA, read-out: Post-emergence herbicidal activity (percentage phytotoxicity) TRZAW; for plant injury at 125 g/ha: application rate 125 g/ha; for plant injury at 125 g/ha / plant injury at 30 g/ha: visual score; for plant injury at 30 g/ha: application rate 30 g/ha. The gist of the method:
(§4)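 Plants grown ~12 days (range 10-13) in glasshouse (cool species 20/16° C., warm 24/18° C. day/night; 16 h light; 65% humidity), then sprayed post-emergence with IF50 formulation in aqueous 0.2% v/v X-77. Visual percentage phytotoxicity scored 15 days after application (100% = total damage, 0% = none).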

Experiment [9] deals with Glycine max (GLXMA, soybean). The description is as above. Conditions: 360 h, 15 DAA, visual score, read-out: Post-emergence herbicidal activity (percentage phytotoxicity) GLXMA; for plant injury at 125 g/ha: application rate 125 g/ha; for plant injury at 30 g/ha: application rate 30 g/ha. The essentials: as §4
The test system of experiment [10] is Brassica napus (BRSNN, rape). Described as above. The settings on record: 360 h, 15 DAA, visual score, read-out: Post-emergence herbicidal activity (percentage phytotoxicity) BRSNN; for plant injury at 125 g/ha: application rate 125 g/ha; for plant injury at 30 g/ha: application rate 30 g/ha. The essentials: as §4
The test system of experiment [11] is Beta vulgaris (BEAVA, sugarbeet). Described as above. Conditions: 360 h, 15 DAA, visual score, read-out: Post-emergence herbicidal activity (percentage phytotoxicity) BEAVA; for plant injury at 125 g/ha: application rate 125 g/ha; for plant injury at 30 g/ha: application rate 30 g/ha. The gist of the method:
as §4

The mark [12] stands for this setting: post-emergence (Example 1B Table 2).
Where [13] appears, read: post-emergence (Example 1B Table 1).
The mark [14] stands for this setting: post-emergence (Example 1B Table 1), 30 g/ha.

For the compound `C#CCC1C(=O)C(c2c(C)cc(C)cc2C)C(=O)C1CC#C` (stereo not drawn) [Compound A42], the pest or weed control at 125 g/ha in experiment [1] was determined as 50%; in experiment [2], 80%; in experiment [3], 0%. The pest or weed control at 500 g/ha was 70% in experiment [1] (application rate 500 g/ha); 100% in experiment [2] (application rate 500 g/ha); 50% in experiment [3] (application rate 500 g/ha); 80% in [6] (500 g/ha); 70% in [7] (500 g/ha). In addition, the pest or weed control at 250 g/ha came to 90% in [4] (setting [12]) and 100% in experiment [5] (setting [12]). Moreover, the plant injury at 125 g/ha is 0% in experiment [8], 10% in experiment [9], 20% in experiment [10] and 0% in experiment [11]. Moreover, the plant injury at 500 g/ha in experiment [8] (application rate 500 g/ha, visual score 100%=total damage, 0%=no damage) was 10%; in [9] (application rate 500 g/ha), 10%; in [10] (application rate 500 g/ha), 80%; in [11] (application rate 500 g/ha) it was 30%.

Consider `C#CCC1CC(=O)C(c2c(F)cc(-c3ccc(Cl)cc3)cc2OC)C1=O` (stereo not drawn) [Compound A14], for which the figures for the pest or weed control at 125 g/ha in experiment [1], in experiment [2] and in [3] were 60%, 20% and 40%, respectively. The pest or weed control at 62.5 g/ha in experiment [4] (setting [13]) was found to be 70%; in experiment [5] (setting [13]), 100%. Moreover, the pest or weed control at 250 g/ha came out at 90% in [4] (setting [13]); 90% in experiment [4] (setting [12]); 100% in experiment [5] (setting [13]); 100% in experiment [5] (setting [12]); 90% in [6]; 100% in [7]. For the same compound, the plant injury at 125 g/ha in experiment [8] was 40%; in [9], 0%; in experiment [10] it was 0%; in experiment [11], 10%.

As to `C#CCC1CC(=O)C(c2c(Cl)cc(-c3ccc(F)c(F)c3)cc2OC)C1=O` (stereo not drawn) [Compound A13], the pest or weed control at 30 g/ha in experiment [1] came out at 30%; in experiment [2], 10%; in experiment [3], 30%; in [4] (setting [14]), 90%; in experiment [5] (setting [14]), 100%. The pest or weed control at 125 g/ha in experiment [1] was found to be 100%; in experiment [2] it was 80%; in experiment [3] it was 80%. The pest or weed control at 250 g/ha in experiment [4] (setting [13]), in experiment [4] (setting [12]), in [5] (setting [13]), in experiment [5] (setting [12]), in experiment [6] and in [7] was 100% in each case. In addition, the pest or weed control at 62.5 g/ha in experiment [4] (setting [12]) and in experiment [5] (setting [12]) was 100% in each case. Also, the plant injury at 30 g/ha was found to be 40% in [8], 20% in experiment [9], 70% in experiment [10] and 60% in [11]. Moreover, the plant injury at 125 g/ha is 80% in experiment [8], 30% in experiment [9], 80% in experiment [10] and 70% in [11].

As to `C#CCC1CC(=O)C(c2c(C)cc(C)cc2C)C1=O` (stereo not drawn) [Compound A23], the pest or weed control at 125 g/ha in [1] was 90%; in experiment [2], 90%; in experiment [3] it was 80%. The pest or weed control at 62.5 g/ha in [4] (setting [12]) came to 90%; in experiment [5] (setting [12]), 100%. The pest or weed control at 250 g/ha in experiment [4] (setting [12]) was found to be 100%; in experiment [5] (setting [12]), 100%; in [6], 70%; in [7], 90%. The plant injury at 125 g/ha in [8] was found to be 20%; in [9] it was 0%; in experiment [10], 70%; in experiment [11] it was 30%.

Turning to `C#CCC1CC(=O)C(c2c(C)cc(-c3ccc(F)cc3)cc2C)C1=O` (stereo not drawn) [Compound A1, 2-[4-(4-fluorophenyl)-2,6-dimethyl-phenyl]-4-prop-2-ynylcyclopentane-1,3-dione], the results for the pest or weed control at 30 g/ha in experiment [1], in [2] and in experiment [3] were 60%, 70% and 70%, respectively. For the same compound, the pest or weed control at 125 g/ha in [1] is 80%; in [2], 80%; in experiment [3] it was 100%; in experiment [6] (125 g/ha), 90%; in experiment [7] (125 g/ha) it was 100%. Moreover, the pest or weed control at 62.5 g/ha in experiment [4] (setting [13]) was 90%; in experiment [5] (setting [13]) it was 100%. Further, the pest or weed control at 250 g/ha in experiment [4] (setting [13]) and in experiment [5] (setting [13]) was 100% in each case. Further, the plant injury at 30 g/ha was determined as 80% in experiment [8], 0% in experiment [9], 70% in experiment [10] and 70% in experiment [11]. Moreover, the plant injury at 125 g/ha turned out to be 80% in [8], 0% in experiment [9], 70% in [10] and 70% in experiment [11].
